Data taken from paper PMC6773697, “Antileukemic activity of novel adenosine derivatives” (Scientific Reports, 2019).

Tests used:
HMEC-1 cells = test: XTT cytotoxicity assay, HMEC-1 (normal dermal endothelium); assay type: cell-based; conditions: Homo sapiens, 48 h incubation, none in the picture
Experimental: (§1) The cytotoxic activity test with XTT (sodium 3′-[1-(phenylaminocarbonyl)- 3,4-tetrazolium]-bis (4-methoxy-6-nitro) benzene sulfonic acid hydrate) is a colorimetric method for determining the parameters associated with cell viability. The cytotoxicity in HL-60, THP-1, MOLT-4, and HMEC-1 cells was measured by the XTT assay. XTT is reduced to formazan by the mitochondrial respiratory chain oxidoreductase, which is active only in living cells. The formed crystals of formazan are dissolved directly in the medium. The amount of product is proportional to the number of live cells.
(§2) The IC50 parameter was determined by dividing the mean absorbance values of the drug-treated samples by those of control cells and defined as the drug concentration causing a 50% reduction of cell viability relative to the control. It was calculated using the “Ed50v10(1)” computer application. Cells were plated in 96-well plates at a density of 15 × 10^3 cells in 100 μL culture medium. Drugs were then added at a concentration range of 10 nM–10,000 nM to obtain a final volume of the mixture of 150 μL. Some cells were preincubated with an ATR kinase inhibitor (VE-821) for 1 h at 37 °C before adding the tested compounds. In this case drugs were added at a concentration range of 10 nM–300 nM. For the XTT assay, after 48 h of incubation, the plates were centrifuged at 1,500 rpm for 10 min at 4 °C, the culture medium was removed, and the cells were suspended in 100 mm^3 of HBSS (Hank’s Buffered Salt Solution) containing 140 mM NaCl, 5 mM KCl, 0.8 mM MgCl2, 1.8 mM CaCl2, 1 mM Na2HPO4, 10 mM HEPES (N- (2-hydroxyethyl) -piperazine-N′- (2-ethanesulfonic acid), and 1% glucose at pH 7.4. Then, 50 μL of XTT solution (in PBS) was added to a final concentration of […]. In addition, PMS (phenazine methosulphate) - methyl dibenzo-N-methylpyrazine sulphate (0.383 mg/cm^3) was used, which was combined with XTT solution at a ratio of 1:50. After 4 h of incubation with XTT, absorbance was measured at a wavelength λ = 450 nm and reference wavelength λ = 690 nm with a microplate reader (BioTek, Winooski, VT, USA).

MOLT-4 cells = test: XTT cytotoxicity assay, MOLT-4; assay type: cell-based, human; conditions: for IC50: Homo sapiens, MOLT-4, XTT, 48 h incubation, none in the picture
Experimental: as §1, §2

γH2AX in MOLT-4 cells = test: H2AX (phospho S139) In-Cell ELISA, MOLT-4; assay type: cell-based, human; conditions: MOLT-4, 48 h, versus CLA
Experimental: The level H2AX protein phosphorylated Ser139 was measured in tested leukemia cells by using of In-Cell ELISA, ICE assay kit. The cells were seeded on 96-well plates (100 × 10^3/well) and 48 h later, incubated with the appropriate compounds. In some experimental variants, cells were preincubated for 1 h with VE-821 (10 µM). The cells were fixed by adding a final concentration of 4% paraformaldehyde solution (10 min, room temperature). After 2 h of Block Solution incubation, cells were treated with a highly specific antibody. A rabbit monoclonal antibody specific to H2AX (phospho S139) was used (at 1:100, 2 h incubation). Next Secondary Antibody Solution (at 1:1000) were added to the cells. The measurements were obtained on a fluorescence plate reader at an excitation wavelength of 680 nm and emission at 694 nm. The cells were PBS washed and 100 µL of Janus Green Stain was added to each well of the plate (5 min., room temperature). The data were collected at excitation wavelength of 750 nm and emission at 800 nm channel (Fluoroskan Cary Eclipse). Antibody signal intensity was normalized to the total amount using Janus Green cell-stain.

[1] = system: intracellular calcium in THP-1 cells; test: Intracellular calcium assay (Fluo-4 NW), THP-1; assay type: cell-based, human; conditions: THP-1, 2 h incubation
Experimental: Intracellular calcium levels were determined using the fluorescent probe Fluo-4 NW. The cells were plated in 96-well black plates (15 × 10^3 cells/well) and treated with cladribine and the new derivatives. Incubation with drugs was performed for different times (2–48 h). The medium was then removed, and the cells were washed with phosphate buffered saline (PBS)[35],[36]. Finally, a dye loading solution (Fluo-4 NW dye, probenecid, assay buffer—1xHBSS, 20 mM HEPES; 100 μL per well) was processed according to the Fluo-4 NW Calcium Assay Kit protocol (Molecular Probes) and incubated for 30 min in the dark at 37 °C, and then for another 30 min at the room temperature. The measurements were calculated on a fluorescence plate reader for excitation at 494 nm and emission at 516 nm. To avoid errors in the measurement of fluorescence intensity, caused by feasible cell detachment and resulting decrease in the cell number in the samples due to the drug treatment, DNA content was estimated as well.[37] After the measurement of intracellular calcium fluorescence, the probes were centrifuged at 300xg, 10 min. […] Then 100 μl of 5 μM of propidium iodide (PI) was added, the plate was immediately shaken, incubated for 15 min at room temperature in the dark and the fluorescence was read at 350/620 nm with a Fluoroskan Ascent FL microplate reader (Labsystems, Sweden).

| SMILES | IC50 (HMEC-1 cells) | IC50 (MOLT-4 cells) | effectiveness in inducing dsDNA (γH2AX) relative to CLA (γH2AX in MOLT-4 cells) | intracellular calcium ion concentration [1] | cytotoxic potency compared with CLA (MOLT-4 cells; MOLT-4, XTT) |
| --- | --- | --- | --- | --- | --- |
| OC[C@H]1O[C@@H](n2cnc3c(N=CN4CCCC4)nc(Cl)nc32)C[C@@H]1O [CLA-FPIR, [6-deamino-6-(N′, N′-l′, 4′-tetramethyleneformamidino)] cladribine] | 0.231 µM | 0.127 µM | about 2 fold | highest intracellular calcium ion concentration |  |
| OC[C@H]1O[C@@H](n2cnc3c(N=CN4CCOCC4)nc(Cl)nc32)C[C@@H]1O [CLA-FMOR, [6-deamino-6-(N′, N′-3′-oxa-1′, 5′-pentamethyleneformamidine)] cladribine] | 0.287 µM | 0.073 µM | about 2 fold | highest intracellular calcium ion concentration | more potent than CLA |
